# Target: ASK1 kinase (Homo sapiens (Human), UniProt Q99683)
# Test: RBC Kinase Assay (33P-ATP radiometric, myelin basic protein substrate)
# Type: biochemical
# Conditions: 20 ng ASK1 kinase, MBP substrate, 120 min at room temperature, 1% DMSO
# Experimental: Example B1. RBC Kinase Assay Protocol
# Base Reaction buffer: 20 mM Hepes (pH 7.5), 10 mM MgCl2, 1 mM EGTA, 0.02% Brij35, 0.02 mg/ml BSA, 0.1 mM Na3VO4, 2 mM DTT, and 1% DMSO were used for the assay.
# Myelin base protein (MPB) was prepared in freshly prepared Base Reaction Buffer. 20 ng of ASK1 kinase was delivered into the substrate solution and gently mixed. Compounds in DMSO were delivered into the kinase reaction mixture (final DMSO concentration 1%). Commercially available 33P-ATP was delivered into the reaction mixture to initiate the reaction. The kinase reaction was incubated for 120 min. at room temperature. Reactions were spotted onto P81 ion exchange paper (Whatman #3698-915). Filters were washed extensively in 0.75% Phosphoric acid. Radioactivity on filters was read, and IC50 values were determined.
# Chain of ASK1 kinase (Q99683 whole entry): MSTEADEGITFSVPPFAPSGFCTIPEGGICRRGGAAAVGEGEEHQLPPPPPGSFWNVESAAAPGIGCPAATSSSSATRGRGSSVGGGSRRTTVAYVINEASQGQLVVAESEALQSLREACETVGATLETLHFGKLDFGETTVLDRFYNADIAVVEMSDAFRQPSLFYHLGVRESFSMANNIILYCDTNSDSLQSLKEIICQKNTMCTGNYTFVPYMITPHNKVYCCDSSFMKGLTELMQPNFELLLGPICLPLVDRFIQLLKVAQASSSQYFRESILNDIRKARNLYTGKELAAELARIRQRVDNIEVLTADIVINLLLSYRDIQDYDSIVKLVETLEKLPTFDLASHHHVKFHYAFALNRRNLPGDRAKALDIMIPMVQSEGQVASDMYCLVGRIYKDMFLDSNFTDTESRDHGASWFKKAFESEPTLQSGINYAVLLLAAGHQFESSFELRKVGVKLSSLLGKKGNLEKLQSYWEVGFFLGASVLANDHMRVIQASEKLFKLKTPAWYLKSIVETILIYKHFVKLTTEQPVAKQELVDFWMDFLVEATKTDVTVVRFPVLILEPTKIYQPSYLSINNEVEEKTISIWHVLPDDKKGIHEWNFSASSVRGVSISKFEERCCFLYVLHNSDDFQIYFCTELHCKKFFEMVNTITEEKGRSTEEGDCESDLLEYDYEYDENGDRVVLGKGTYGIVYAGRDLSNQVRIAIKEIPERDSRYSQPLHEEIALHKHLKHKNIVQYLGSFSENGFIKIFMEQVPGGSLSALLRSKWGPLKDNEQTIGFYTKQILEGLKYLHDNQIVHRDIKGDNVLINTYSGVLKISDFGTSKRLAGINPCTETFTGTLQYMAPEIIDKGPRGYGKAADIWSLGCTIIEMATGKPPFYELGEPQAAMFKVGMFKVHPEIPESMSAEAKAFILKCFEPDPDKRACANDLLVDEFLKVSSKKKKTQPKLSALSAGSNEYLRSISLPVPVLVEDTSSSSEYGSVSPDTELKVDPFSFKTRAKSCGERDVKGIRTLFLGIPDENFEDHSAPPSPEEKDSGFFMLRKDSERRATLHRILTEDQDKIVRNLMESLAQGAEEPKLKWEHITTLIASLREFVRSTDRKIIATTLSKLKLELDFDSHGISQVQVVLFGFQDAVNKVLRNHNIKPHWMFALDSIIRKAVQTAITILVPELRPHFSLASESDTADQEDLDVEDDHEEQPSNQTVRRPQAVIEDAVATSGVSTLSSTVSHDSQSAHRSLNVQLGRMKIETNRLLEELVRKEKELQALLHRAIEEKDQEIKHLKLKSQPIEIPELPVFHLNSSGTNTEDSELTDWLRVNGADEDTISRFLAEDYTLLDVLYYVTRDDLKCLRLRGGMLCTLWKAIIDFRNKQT
row,IC50,Compound
1,5.7 nM,"Cc1cc(F)c(C(=O)Nc2cccc3c2OCC(CO)n2cnnc2-3)cc1-n1cnc(C2CC2)c1 (stereo not shown) [Example 81, 5-(4-cyclopropyl-1H-imidazol-1-yl)-2-fluoro-N-(5-(hydroxymethyl)-5,6-dihydrobenzo[f][1,2,4]triazolo[4,3-d][1,4]oxazepin-8-yl)-4-methylbenzamide]"
2,0.9 nM,"Cc1cc(F)c(C(=O)Nc2cccc3c2OC[C@H](CO)n2nnnc2-3)cc1-n1cnc(C2CC2)c1 [Example 23, (S)-5-(4-cyclopropyl-1H-imidazol-1-yl)-2-fluoro-N-(5-(hydroxymethyl)-5,6-dihydrobenzo[f]tetrazolo[1,5-d][1,4]oxazepin-8-yl)-4-methylbenzamide]"
3,5.6 nM,"Cc1cc(F)c(C(=O)Nc2cccc3c2OCC(C)(C)n2cnnc2-3)cc1-n1cnc(C2CC2)c1 [Example 9, 5-(4-cyclopropyl-1H-imidazol-1-yl)-N-(5,5-dimethyl-5,6-dihydrobenzo[f][1,2,4]triazolo[4,3-d][1,4]oxazepin-8-yl)-2-fluoro-4-methylbenzamide]"
4,2.5 nM,"Cc1cc(F)c(C(=O)Nc2cccc3c2O[C@@H](C)Cn2cnnc2-3)cc1-n1cnc(C2CC2)c1 [Example 35, (S)-5-(4-cyclopropyl-1H-imidazol-1-yl)-2-fluoro-4-methyl-N-(6-methyl-5,6-dihydrobenzo[f][1,2,4]triazolo[4,3-d][1,4]oxazepin-8-yl)benzamide]"
5,4.1 nM,"Cc1cc(F)c(C(=O)Nc2cccc3c2O[C@H](C)Cn2cnnc2-3)cc1-n1cnc(C2CC2)c1 [Example 34, (R)-5-(4-cyclopropyl-1H-imidazol-1-yl)-2-fluoro-4-methyl-N-(6-methyl-5,6-dihydrobenzo[f][1,2,4]triazolo[4,3-d][1,4]oxazepin-8-yl)benzamide]"
6,6.6 nM,"Cc1cc(F)c(C(=O)Nc2cccc3c2OCCn2nnnc2-3)cc1-n1cnc(C2CC2)c1 [Example 79, 5-(4-cyclopropyl-1H-imidazol-1-yl)-N-(5,6-dihydrobenzo[f]tetrazolo[1,5-d][1,4]oxazepin-8-yl)-2-fluoro-4-methylbenzamide]"
7,6.8 nM,"Cc1cc(F)c(C(=O)Nc2cccc3c2OC[C@@H](C)n2cncc2-3)cc1-n1cnc(C2CC2)c1 [Example 47, (R)-5-(4-cyclopropyl-1H-imidazol-1-yl)-2-fluoro-4-methyl-N-(5-methyl-5,6-dihydrobenzo[f]imidazo[1,5-d][1,4]oxazepin-8-yl)benzamide]"
8,5.8 nM,"O=C(Nc1cccc2c1OCC(CO)n1cnnc1-2)c1cc(-n2cnc(C3CC3)c2)ccn1 (stereo not shown) [Example 15, 4-(4-cyclopropyl-1H-imidazol-1-yl)-N-(5-(hydroxymethyl)-5,6-dihydrobenzo[f][1,2,4]triazolo[4,3-d][1,4]oxazepin-8-yl)picolinamide]"
9,5.7 nM,"Cc1cc(F)c(C(=O)Nc2cccc3c2OC[C@H](C)n2nnnc2-3)cc1-n1cnc(C2CC2)c1 [Example 3, (S)-5-(4-cyclopropyl-1H-imidazol-1-yl)-2-fluoro-4-methyl-N-(5-methyl-5,6-dihydrobenzo[f]tetrazolo[1,5-d][1,4]oxazepin-8-yl)benzamide]"

# Further lines, the molecule ahead of its results:
row,Compound,IC50
1,"O=C(Nc1cccc2c1OCC1(CC1)n1cnnc1-2)c1cc(-n2cnc(C3CC3)c2)c(N2CCOCC2)cn1 [Example 25, 4-(4-cyclopropyl-1H-imidazol-1-yl)-5-morpholino-N-(6H-spiro[benzo[f][1,2,4]triazolo[4,3-d][1,4]oxazepine-5,1′-cyclopropan]-8-yl)picolinamide]",3.3 nM
2,"CC1(O)CCN(c2cnc(C(=O)Nc3cccc4c3OCCn3nnnc3-4)cc2-n2cnc(C3CC3)c2)C1 (stereo not shown) [Example 63, 4-(4-cyclopropyl-1H-imidazol-1-yl)-N-(5,6-dihydrobenzo[f]tetrazolo[1,5-d][1,4]oxazepin-8-yl)-5-(3-hydroxy-3-methylpyrrolidin-1-yl)picolinamide]",2.7 nM
3,"Cc1cc(F)c(C(=O)Nc2cccc3c2OC2(CC2)Cn2nnnc2-3)cc1-n1cnc(C2CC2)c1 [Example 59, 5-(4-cyclopropyl-1H-imidazol-1-yl)-2-fluoro-4-methyl-N-(5H-spiro[benzo[f]tetrazolo[1,5-d][1,4]oxazepine-6,1′-cyclopropan]-8-yl)benzamide]",4.2 nM
4,"C[C@H]1COc2c(NC(=O)c3cc(-n4cnc(C5CC5)c4)c(N4CCOCC4)cn3)cccc2-c2nncn21 [Example 38, (S)-4-(4-cyclopropyl-1H-imidazol-1-yl)-N-(5-methyl-5,6-dihydrobenzo[f][1,2,4]triazolo[4,3-d][1,4]oxazepin-8-yl)-5-morpholinopicolinamide]",0.6 nM
5,"O=C(Nc1cccc2c1OC[C@H](CF)n1cnnc1-2)c1cc(-n2cnc(C3CC3)c2)ccn1 [Example 33, (R)-4-(4-cyclopropyl-1H-imidazol-1-yl)-N-(5-(fluoromethyl)-5,6-dihydrobenzo[f][1,2,4]triazolo[4,3-d][1,4]oxazepin-8-yl)picolinamide]",4.1 nM
6,"C[C@H]1COCCN1c1cnc(C(=O)Nc2cccc3c2OCCn2nnnc2-3)cc1-n1cnc(C2CC2)c1 [Example 65, (S)-4-(4-cyclopropyl-1H-imidazol-1-yl)-N-(5,6-dihydrobenzo[f]tetrazolo[1,5-d][1,4]oxazepin-8-yl)-5-(3-methylmorpholino)picolinamide]",3.3 nM
7,"CN1CCN(c2cnc(C(=O)Nc3cccc4c3OCCn3nnnc3-4)cc2-n2cnc(C3CC3)c2)CC1 [Example 54, 4-(4-cyclopropyl-1H-imidazol-1-yl)-N-(5,6-dihydrobenzo[f]tetrazolo[1,5-d][1,4]oxazepin-8-yl)-5-(4-methylpiperazin-1-yl)picolinamide]",5.9 nM
8,"C[C@@H]1COc2c(NC(=O)c3cc(-n4cnc(C5CC5)c4)ccn3)cccc2-c2nnnn21 [Example 4, (R)-4-(4-cyclopropyl-1H-imidazol-1-yl)-N-(5-methyl-5,6-dihydrobenzo[f]tetrazolo[1,5-d][1,4]oxazepin-8-yl)picolinamide]",5.7 nM
9,"Cc1cc(F)c(C(=O)Nc2cccc3c2OCC2(CC2)n2nnnc2-3)cc1-n1cnc(C2CC2)c1 [Example 14, 5-(4-cyclopropyl-1H-imidazol-1-yl)-2-fluoro-4-methyl-N-(6H-spiro[benzo[f]tetrazolo[1,5-d][1,4]oxazepine-5,1′-cyclopropan]-8-yl)benzamide]",4.2 nM
10,"C[C@H]1COc2c(NC(=O)c3cc(-n4cnc(C5CC5)c4)ccn3)cccc2-c2nncn21 [Example 80, (S)-4-(4-cyclopropyl-1H-imidazol-1-yl)-N-(5-methyl-5,6-dihydrobenzo[f][1,2,4]triazolo[4,3-d][1,4]oxazepin-8-yl)picolinamide]",5.7 nM
11,"O=C(Nc1cccc2c1OC[C@@H](CF)n1cnnc1-2)c1cc(-n2cnc(C3CC3)c2)ccn1 [Example 29, (S)-4-(4-cyclopropyl-1H-imidazol-1-yl)-N-(5-(fluoromethyl)-5,6-dihydrobenzo[f][1,2,4]triazolo[4,3-d][1,4]oxazepin-8-yl)picolinamide]",4.1 nM
12,"C[C@H]1COc2c(NC(=O)c3cc(-n4cnc(C5CC5)c4)ccn3)cccc2-c2nnnn21 [Example 6, (S)-4-(4-cyclopropyl-1H-imidazol-1-yl)-N-(5-methyl-5,6-dihydrobenzo[f]tetrazolo[1,5-d][1,4]oxazepin-8-yl)picolinamide]",7.7 nM
13,"CC1(O)CN(c2cnc(C(=O)Nc3cccc4c3OCCn3nnnc3-4)cc2-n2cnc(C3CC3)c2)C1 [Example 67, 4-(4-cyclopropyl-1H-imidazol-1-yl)-N-(5,6-dihydrobenzo[f]tetrazolo[1,5-d][1,4]oxazepin-8-yl)-5-(3-hydroxy-3-methylazetidin-1-yl)picolinamide]",2.6 nM
14,"CC(C)Oc1cnc(C(=O)Nc2cccc3c2OCCn2cnnc2-3)cc1-n1cnc(C2CC2)c1 [Example 73, 4-(4-cyclopropyl-1H-imidazol-1-yl)-N-(5,6-dihydrobenzo[f][1,2,4]triazolo[4,3-d][1,4]oxazepin-8-yl)-5-isopropoxypicolinamide]",5.8 nM
15,"Cc1cc(F)c(C(=O)Nc2cccc3c2O[C@H](C)Cn2nnnc2-3)cc1-n1cnc(C2CC2)c1 [Example 43, (R)-5-(4-cyclopropyl-1H-imidazol-1-yl)-2-fluoro-4-methyl-N-(6-methyl-5,6-dihydrobenzo[f]tetrazolo[1,5-d][1,4]oxazepin-8-yl)benzamide]",0.9 nM
16,"C[C@@H]1CN(c2cnc(C(=O)Nc3cccc4c3OCCn3nnnc3-4)cc2-n2cnc(C3CC3)c2)CCO1 [Example 55, (R)-4-(4-cyclopropyl-1H-imidazol-1-yl)-N-(5,6-dihydrobenzo[f]tetrazolo[1,5-d][1,4]oxazepin-8-yl)-5-(2-methylmorpholino)picolinamide]",2.1 nM
17,"CC1(C)COc2c(NC(=O)c3cc(-n4cnc(C5CC5)c4)c(N4CCOCC4)cn3)cccc2-c2nncn21 [Example 36, 4-(4-cyclopropyl-1H-imidazol-1-yl)-N-(5,5-dimethyl-5,6-dihydrobenzo[f][1,2,4]triazolo[4,3-d][1,4]oxazepin-8-yl)-5-morpholinopicolinamide]",5.6 nM
18,"CC(C)Oc1cnc(C(=O)Nc2cccc3c2OC[C@@H](C)n2nnnc2-3)cc1-n1cnc(C2CC2)c1 [Example 69, (R)-4-(4-cyclopropyl-1H-imidazol-1-yl)-5-isopropoxy-N-(5-methyl-5,6-dihydrobenzo[f]tetrazolo[1,5-d][1,4]oxazepin-8-yl)picolinamide]",4.1 nM
19,"O=C(Nc1cccc2c1OC[C@H](CO)n1nnnc1-2)c1cc(-n2cnc(C3CC3)c2)ccn1 [Example 24, (S)-4-(4-cyclopropyl-1H-imidazol-1-yl)-N-(5-(hydroxymethyl)-5,6-dihydrobenzo[f]tetrazolo[1,5-d][1,4]oxazepin-8-yl)picolinamide]",6.2 nM
